Reference: patent US11730720B2, “ALK5 inhibitors” (THERAVANCE BIOPHARMA R&D IP, LLC, priority 2018, dated 2023)

Key:
[1] = target: T1, recombinant human ALK5 (TGF-βR1) protein (Homo sapiens, UniProt P36897); experiment: Biochemical ALK5 (TGF-βR1) assay to measure pKi (LANCE Ultra ULight kinase assay); conditions: apparent pKi, converted from pIC50 using the Cheng-Prusoff equation
T1 construct: purchased Life Technologies PR9075A
T1 sequence (P36897 34-503): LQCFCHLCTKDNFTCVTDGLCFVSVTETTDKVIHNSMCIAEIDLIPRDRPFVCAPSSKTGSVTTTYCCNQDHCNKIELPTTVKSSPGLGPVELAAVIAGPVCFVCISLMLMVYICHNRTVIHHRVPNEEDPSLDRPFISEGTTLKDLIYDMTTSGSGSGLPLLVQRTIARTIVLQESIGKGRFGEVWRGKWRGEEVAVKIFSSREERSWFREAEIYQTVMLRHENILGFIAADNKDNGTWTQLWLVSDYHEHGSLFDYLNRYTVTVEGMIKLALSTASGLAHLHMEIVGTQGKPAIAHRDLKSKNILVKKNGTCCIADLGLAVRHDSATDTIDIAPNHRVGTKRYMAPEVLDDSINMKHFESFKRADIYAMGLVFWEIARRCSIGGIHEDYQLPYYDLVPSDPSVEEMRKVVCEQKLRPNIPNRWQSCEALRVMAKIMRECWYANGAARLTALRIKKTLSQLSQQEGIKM
Summary of the method: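 TR-FRET kinase format: compound dose range 10 μM–25 pM equilibrated 60 min with human ALK5 and ULight-labelled topoisomerase 2α peptide in HEPES/MgCl2 buffer pH 7.5 with DTT. Reaction started with ATP (125 μM stock, 5× final), 60 min at 37° C, stopped with EDTA/Eu-anti-phospho antibody; pKi derived from pIC50 via Cheng-Prusoff.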

[2] = tested on: TGF-β-stimulated SMAD3 phosphorylation in BEAS-2B cells; experiment: Cellular ALK5 potency assay, inhibition of TGF-β stimulated pSMAD3 formation in BEAS-2B cells; assay type: cell-based; conditions: Homo sapiens, inhibition of TGF-β (10 ng/mL) stimulated pSMAD3 formation, 1 hour compound incubation, read-out: BEAS2B pIC50 (converted)
Summary of the method: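 Phospho-SMAD3 was quantified by AlphaLISA in lysates of human lung epithelial BEAS-2B cells. Compound was added 1 h (37 °C, HEPES/BSA-supplemented HBSS) before a 30 min challenge with 10 ng/mL TGF-β. Values are pIC50 relative to stimulated cells without compound.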

Structure (SMILES)	Ki [1]	IC50 [2]
NCCn1cc(-c2cnc3ccc(-c4nc[nH]c4-c4cc(Cl)c(F)cc4F)nc3c2)cn1 [Compound 7-5, 2-[4-[6-[5-(5-chloro-2,4-difluoro-phenyl)-1H-imidazol-4-yl]-1,5-naphthyridin-3-yl]pyrazol-1-yl]ethanamine]	0.0398 to 0.316 nM	25.1 to 158 nM
CN(CC1CNC1)c1cnc2ccc(-c3nc[nH]c3-c3cc(Cl)c(F)cc3F)nc2c1 [Compound 7-6, N-(azetidin-3-ylmethyl)-6-[5-(5-chloro-2,4-difluoro-phenyl)-1H-imidazol-4-yl]-N-methyl-1,5-naphthyridin-3-amine]	0.0398 to 0.316 nM	25.1 to 158 nM
N[C@@H]1CCCC[C@H]1n1cc(-c2cnc3ccc(-c4nc[nH]c4-c4cc(Cl)c(F)cc4F)cc3c2)cn1 [Compound 7-7, (1R,2R)-2-[4-[6-[5-(5-chloro-2,4-difluoro-phenyl)-1H-imidazol-4-yl]-3-quinolyl]pyrazol-1-yl]cyclohexanamine]	0.0398 to 0.316 nM	25.1 to 158 nM
CC(C)N1CCN(CCNc2cnc3ccc(-c4c[nH]nc4-c4ccc(F)c(F)c4)nc3c2)CC1 [Compound 8-1, 6-(3-(3,4-difluorophenyl)-1H-pyrazol-4-yl)-N-(2-(4-isopropylpiperazin-1-yl)ethyl)-1,5-naphthyridin-3-amine]	3.98 to 31.6 nM	25.1 to 158 nM
CC1(C)CCCN1CCNc1cnc2ccc(-c3c[nH]nc3-c3ccc(F)c(F)c3)nc2c1 [Compound 8-2, 6-[3-(3,4-difluorophenyl)-1H-pyrazol-4-yl]-N-[2-(2,2-dimethylpyrrolidin-1-yl)ethyl]-1,5-naphthyridin-3-amine]	3.98 to 31.6 nM	25.1 to 158 nM
CN1CCN(C2CCN(c3cnc4ccc(-c5c[nH]nc5-c5ccc(F)c(F)c5)nc4c3)CC2)CC1 [Compound 8-3, 2-(3-(3,4-difluorophenyl)-1H-pyrazol-4-yl)-7-(4-(4-methylpiperazin-1-yl)piperidin-1-yl)-1,5-naphthyridine]	0.398 to 3.16 nM	25.1 to 158 nM
Fc1ccc(-c2n[nH]cc2-c2ccc3ncc(N4CCNCC4)cc3n2)cc1F [Compound 8-4, 2-[3-(3,4-difluorophenyl)-1H-pyrazol-4-yl]-7-piperazin-1-yl-1,5-naphthyridine]	3.98 to 31.6 nM	25.1 to 158 nM
CNC1CCN(c2cnc3ccc(-c4c[nH]nc4-c4ccc(F)c(F)c4)nc3c2)CC1 [Compound 8-6, 1-[6-[3-(3,4-difluorophenyl)-1H-pyrazol-4-yl]-1,5-naphthyridin-3-yl]-N-methyl-piperidin-4-amine]	0.398 to 3.16 nM	25.1 to 158 nM
CN(C)C1CCN(c2cnc3ccc(-c4c[nH]nc4-c4ccc(F)c(F)c4)nc3c2)CC1 [Compound 8-7, 1-[6-[3-(3,4-difluorophenyl)-1H-pyrazol-4-yl]-1,5-naphthyridin-3-yl]-N,N-dimethyl-piperidin-4-amine]	0.398 to 3.16 nM	25.1 to 158 nM
OCCN1CCN(c2cnc3ccc(-c4c[nH]nc4-c4ccc(F)c(F)c4)nc3c2)CC1 [Compound 8-8, 2-[4-[6-[3-(3,4-difluorophenyl)-1H-pyrazol-4-yl]-1,5-naphthyridin-3-yl]piperazin-1-yl]ethanol]	3.98 to 31.6 nM	25.1 to 158 nM
NC1CCN(c2cnc3ccc(-c4c[nH]nc4-c4ccc(F)c(F)c4)nc3c2)C1 (stereo not drawn) [Compound 8-9, 1-[6-[3-(3,4-difluorophenyl)-1H-pyrazol-4-yl]-1,5-naphthyridin-3-yl]pyrrolidin-3-amine]	0.398 to 3.16 nM	25.1 to 158 nM
CC(C)N1CCN(c2cnc3ccc(-c4c[nH]nc4-c4ccc(F)c(F)c4)nc3c2)CC1 [Compound 8-10, 2-[3-(3,4-difluorophenyl)-1H-pyrazol-4-yl]-7-(4-isopropylpiperazin-1-yl)-1,5-naphthyridine]	0.398 to 3.16 nM	25.1 to 158 nM
Fc1ccc(-c2n[nH]cc2-c2ccc3ncc(N4CCC(N5CCCC5)CC4)cc3n2)cc1F [Compound 8-11, 2-[3-(3,4-difluorophenyl)-1H-pyrazol-4-yl]-7-(4-pyrrolidin-1-yl-1-piperidyl)-1,5-naphthyridine]	0.398 to 3.16 nM	25.1 to 158 nM
CNCCn1cc(-c2cnc3ccc(-c4c[nH]nc4-c4ccc(F)c(F)c4)nc3c2)cn1 [Compound 8-12, 2-(4-(6-(3-(3,4-difluorophenyl)-1H-pyrazol-4-yl)-1,5-naphthyridin-3-yl)-1H-pyrazol-1-yl)-N-methylethan-1-amine]	≤ 0.0316 nM	≤ 20 nM
Fc1ccc(-c2n[nH]cc2-c2ccc3ncc(-c4cn[nH]c4)cc3n2)cc1F [Compound 8-13, 2-[3-(3,4-difluorophenyl)-1H-pyrazol-4-yl]-7-(1H-pyrazol-4-yl)-1,5-naphthyridine]	0.398 to 3.16 nM	≤ 20 nM
CNCCn1ccc(-c2cnc3ccc(-c4c[nH]nc4-c4ccc(F)c(F)c4)nc3c2)n1 [Compound 8-14, 2-[3-[6-[3-(3,4-difluorophenyl)-1H-pyrazol-4-yl]-1,5-naphthyridin-3-yl]pyrazol-1-yl]-N-methyl-ethanamine]	0.398 to 3.16 nM	25.1 to 158 nM
Fc1ccc(-c2n[nH]cc2-c2ccc3ncc(-c4cnn(CC5CNC5)c4)cc3n2)cc1F [Compound 8-15, 7-[1-(azetidin-3-ylmethyl)pyrazol-4-yl]-2-[3-(3,4-difluorophenyl)-1H-pyrazol-4-yl]-1,5-naphthyridine]	≤ 0.0316 nM	25.1 to 158 nM
Cn1cccc(-c2cnc3ccc(-c4c[nH]nc4-c4ccc(F)c(F)c4)nc3c2)c1=O [Compound 8-16, 3-[6-[3-(3,4-difluorophenyl)-1H-pyrazol-4-yl]-1,5-naphthyridin-3-yl]-1-methyl-pyridin-2-one]	3.98 to 31.6 nM	25.1 to 158 nM
NCCn1cc(-c2cnc3ccc(-c4c[nH]nc4-c4ccc(F)c(F)c4)nc3c2)cn1 [Compound 8-17, 2-[4-[6-[3-(3,4-difluorophenyl)-1H-pyrazol-4-yl]-1,5-naphthyridin-3-yl]pyrazol-1-yl]ethanamine]	≤ 0.0316 nM	≤ 20 nM
O=C(O)Cn1cc(-c2cnc3ccc(-c4c[nH]nc4-c4ccc(F)c(F)c4)nc3c2)cn1 [Compound 8-18, 2-[4-[6-[3-(3,4-difluorophenyl)-1H-pyrazol-4-yl]-1,5-naphthyridin-3-yl]pyrazol-1-yl]acetic acid]	0.398 to 3.16 nM	25.1 to 158 nM
NC1CC=C(c2cnc3ccc(-c4c[nH]nc4-c4ccc(F)c(F)c4)nc3c2)CC1 (stereo not drawn) [Compound 8-19, 4-[6-[3-(3,4-difluorophenyl)-1H-pyrazol-4-yl]-1,5-naphthyridin-3-yl]cyclohex-3-en-1-amine]	0.0398 to 0.316 nM	≤ 20 nM
Fc1ccc(-c2n[nH]cc2-c2ccc3ncc(C4=CCNC4)cc3n2)cc1F [Compound 8-20, 2-[3-(3,4-difluorophenyl)-1H-pyrazol-4-yl]-7-(2,5-dihydro-1H-pyrrol-3-yl)-1,5-naphthyridine]	0.398 to 3.16 nM	25.1 to 158 nM
OCCn1cc(-c2cnc3ccc(-c4c[nH]nc4-c4ccc(F)c(F)c4)nc3c2)cn1 [Compound 8-21, 2-(4-(6-(3-(3,4-difluorophenyl)-1H-pyrazol-4-yl)-1,5-naphthyridin-3-yl)-1H-pyrazol-1-yl)ethan-1-ol]	0.0398 to 0.316 nM	≤ 20 nM
CN1CC=C(c2cnc3ccc(-c4c[nH]nc4-c4ccc(F)c(F)c4)nc3c2)C1 [Compound 8-22, 2-(3-(3,4-difluorophenyl)-1H-pyrazol-4-yl)-7-(1-methyl-2,5-dihydro-1H-pyrrol-3-yl)-1,5-naphthyridine]	0.398 to 3.16 nM	25.1 to 158 nM
